Assay results taken from ChEMBL document CHEMBL1144832, “An efficient one-pot synthesis of tethered cyclohexadiene enaminonitriles from methyl-ketones: an effective route to quinazolines” (Bioorg Med Chem Lett, 2008).

Legend:
[1] = tested on: Jurkat; assay: Cytotoxicity against human Jurkat cells; format: functional, cell-based
[2] = tested on: Bacillus subtilis; assay: Antimicrobial activity against Bacillus subtilis; format: functional
[3] = tested on: Escherichia coli; assay: Antimicrobial activity against Escherichia coli; format: functional
[4] = tested on: Saccharomyces cerevisiae; assay: Antimicrobial activity against Saccharomyces cerevisiae; format: functional
[5] = tested on: ScN2a; assay: Cytotoxicity against mouse ScN2a cells; format: functional

**Q.** `CC1(c2ccc(Br)cc2)CC(c2ccc(Br)cc2)=CC(N)=C1C#N` (stereo unspecified) was tested. Which CC50 [1] did it give?
**A.** 20.5 µM

**Q.** And the MIC [2]?
**A.** ≥ 163 µM

**Q.** And the MIC [3]?
**A.** ≥ 189 µM

**Q.** What about the MIC [4] of the same molecule?
**A.** ≥ 197 µM

**Q.** With `CC1=C(/C=C/C2=CC(N)=C(C#N)C(C)(/C=C/C3=C(C)CCCC3(C)C)C2)C(C)(C)CCC1` (stereo unspecified) as the molecule, how does the CC50 [1] read?
**A.** 12.7 µM

**Q.** And the MIC [2]?
**A.** ≥ 163 µM

**Q.** What about the MIC [3] of the same molecule?
**A.** ≥ 189 µM

**Q.** What about the MIC [4] of the same molecule?
**A.** ≥ 197 µM

**Q.** How did the CC50 [1] turn out when `CC1(c2ccccc2)CC(c2ccccc2)=Cc2ncnc(N)c21` (stereo unspecified) was run?
**A.** 17.6 µM

**Q.** What about the MIC [2] of the same molecule?
**A.** ≥ 163 µM

**Q.** And the MIC [3]?
**A.** ≥ 189 µM

**Q.** And the MIC [4]?
**A.** ≥ 197 µM

**Q.** What does the source list for `CC1(c2ccc(-c3ccccc3)cc2)CC(c2ccc(-c3ccccc3)cc2)=Cc2ncnc(N)c21` (stereo unspecified)?
**A.** CC50 [1]: 10.4 µM; MIC [2]: ≥ 163 µM; MIC [3]: ≥ 189 µM; MIC [4]: ≥ 197 µM

**Q.** Which Activity [5] does the source give for `N#Cc1c(N)nc(Sc2ccc(Cl)cc2)c(C#N)c1-c1cccs1` here?
**A.** 16 µM

**Q.** `CC1(c2ccc(F)cc2)CC(c2ccc(F)cc2)=CC(N)=C1C#N` (stereo unspecified) was tested. Which CC50 [1] did it give?
**A.** 19.4 µM

**Q.** And the MIC [2]?
**A.** ≥ 163 µM

**Q.** And the MIC [3]?
**A.** ≥ 189 µM

**Q.** What about the MIC [4] of the same molecule?
**A.** ≥ 197 µM

**Q.** For `N#Cc1c(N)nc(Sc2ccc(Cl)cc2)c(C#N)c1-c1ccccc1`, which Activity [5] is on record?
**A.** 35 µM

**Q.** What does the source list for `CC1(c2ccc(-c3ccccc3)cc2)CC(c2ccc(-c3ccccc3)cc2)=CC(N)=C1C#N` (stereo unspecified)?
**A.** CC50 [1]: 19.3 µM; MIC [2]: ≥ 163 µM; MIC [3]: ≥ 189 µM; MIC [4]: ≥ 197 µM

**Q.** How did the CC50 [1] turn out when `CCCCCCC1=CC(N)=C(C#N)C(C)(CCCCCC)C1` (stereo unspecified) was run?
**A.** 46.8 µM

**Q.** And the MIC [2]?
**A.** ≥ 163 µM

**Q.** What about the MIC [3] of the same molecule?
**A.** ≥ 189 µM

**Q.** What about the MIC [4] of the same molecule?
**A.** ≥ 197 µM

**Q.** For `N#Cc1c(N)nc(Sc2ccc(Cl)cc2)c(C#N)c1-c1ccco1`, which Activity [5] is on record?
**A.** 19 µM

**Q.** With `CC1(c2cccs2)CC(c2cccs2)=CC(N)=C1C#N` (stereo unspecified) as the molecule, how does the CC50 [1] read?
**A.** 172 µM

**Q.** What about the MIC [2] of the same molecule?
**A.** ≥ 163 µM

**Q.** What about the MIC [3] of the same molecule?
**A.** ≥ 189 µM

**Q.** And the MIC [4]?
**A.** ≥ 197 µM

**Q.** With `CC1=C(/C=C/C2=Cc3ncnc(N)c3C(C)(/C=C/C3=C(C)CCCC3(C)C)C2)C(C)(C)CCC1` (stereo unspecified) as the molecule, how does the CC50 [1] read?
**A.** 12.8 µM

**Q.** What about the MIC [2] of the same molecule?
**A.** ≥ 163 µM

**Q.** And the MIC [3]?
**A.** ≥ 189 µM

**Q.** And the MIC [4]?
**A.** ≥ 197 µM

**Q.** Which results are given for `CC1(c2ccc3ccccc3c2)CC(c2ccc3ccccc3c2)=Cc2ncnc(N)c21` (stereo unspecified)?
**A.** CC50 [1]: 9.37 µM; MIC [2]: ≥ 163 µM; MIC [3]: ≥ 189 µM; MIC [4]: ≥ 197 µM

**Q.** How did the CC50 [1] turn out when `CC1(c2ccc(Br)cc2)CC(c2ccc(Br)cc2)=Cc2ncnc(N)c21` (stereo unspecified) was run?
**A.** 12.7 µM

**Q.** And the MIC [2]?
**A.** ≥ 163 µM

**Q.** What about the MIC [3] of the same molecule?
**A.** ≥ 189 µM

**Q.** And the MIC [4]?
**A.** ≥ 197 µM

**Q.** `CC1(c2ccc(Br)s2)CC(c2ccc(Br)s2)=CC(N)=C1C#N` (stereo unspecified) was tested. Which CC50 [1] did it give?
**A.** 13.9 µM

**Q.** And the MIC [2]?
**A.** ≥ 163 µM

**Q.** And the MIC [3]?
**A.** ≥ 189 µM

**Q.** What about the MIC [4] of the same molecule?
**A.** ≥ 197 µM

**Q.** `CC1(c2ccccc2)CC(c2ccccc2)=CC(N)=C1C#N` (stereo unspecified) was tested. Which CC50 [1] did it give?
**A.** 15.1 µM

**Q.** What about the MIC [2] of the same molecule?
**A.** ≥ 163 µM

**Q.** What about the MIC [3] of the same molecule?
**A.** ≥ 189 µM

**Q.** And the MIC [4]?
**A.** ≥ 197 µM

**Q.** For `CC1(c2cccs2)CC(c2cccs2)=Cc2ncnc(N)c21` (stereo unspecified), which CC50 [1] is on record?
**A.** 15.4 µM

**Q.** And the MIC [2]?
**A.** ≥ 163 µM

**Q.** And the MIC [3]?
**A.** ≥ 189 µM

**Q.** And the MIC [4]?
**A.** ≥ 197 µM

**Q.** Which CC50 [1] does the source give for `CC1(c2ccc(F)cc2)CC(c2ccc(F)cc2)=Cc2ncnc(N)c21` (stereo unspecified) here?
**A.** 3.24 µM

**Q.** And the MIC [2]?
**A.** ≥ 163 µM

**Q.** What about the MIC [3] of the same molecule?
**A.** ≥ 189 µM

**Q.** What about the MIC [4] of the same molecule?
**A.** ≥ 197 µM

**Q.** For `CCCCCCC1=Cc2ncnc(N)c2C(C)(CCCCCC)C1` (stereo unspecified), which CC50 [1] is on record?
**A.** 12.6 µM

**Q.** And the MIC [2]?
**A.** ≥ 163 µM

**Q.** And the MIC [3]?
**A.** ≥ 189 µM

**Q.** And the MIC [4]?
**A.** ≥ 197 µM

**Q.** With `CC1(c2ccc3ccccc3c2)CC(c2ccc3ccccc3c2)=CC(N)=C1C#N` (stereo unspecified) as the molecule, how does the IC50 [1] read?
**A.** 19 µM

**Q.** What about the MIC [2] of the same molecule?
**A.** ≥ 163 µM

**Q.** What about the MIC [3] of the same molecule?
**A.** ≥ 189 µM

**Q.** What about the MIC [4] of the same molecule?
**A.** ≥ 197 µM

**Q.** How did the Activity [5] turn out when `N#Cc1c(N)nc(Sc2ccccc2N)c(C#N)c1-c1ccco1` was run?
**A.** 18 µM

**Q.** How did the CC50 [1] turn out when `CC1(c2ccc(Br)s2)CC(c2ccc(Br)s2)=Cc2ncnc(N)c21` (stereo unspecified) was run?
**A.** 9.51 µM

**Q.** And the MIC [2]?
**A.** ≥ 163 µM

**Q.** What about the MIC [3] of the same molecule?
**A.** ≥ 189 µM

**Q.** What about the MIC [4] of the same molecule?
**A.** ≥ 197 µM
